In paper PMC5608406, “In vivo activation of latent HIV with a synthetic bryostatin analog effects both latent cell "kick" and "kill" in strategy for virus eradication” (PLoS Pathogens, 2017):

Key:
[1] = system: latent HIV in CD4+ T cells from ART-treated patients; assay: Activation of HIV from latency in patient-derived CD4+ T cells (virion-associated HIV RNA in supernatant); type: cell-based, human
Description: Nine HIV-infected individuals receiving ART for a median of 2.6 years (range 0.4–9.1) were studied. All study subjects maintained undetectable levels of plasma viremia (<50 copies/mL) at the time of study (S1 Table).
CD4^+ T cells were isolated from cryopreserved peripheral blood mononuclear cells (PBMCs) using a cell enrichment kit (StemCell Technologies). For patient samples 1–6, resting CD4^+ T cells were further isolated by depleting CD25^+, HLA-DR^+ and CD69^+ CD4^+ cells using PE-conjugated antibodies (BD Biosciences) and anti-PE microbeads (Miltenyi Biotec). CD4^+ T cells were incubated with RPMI 1640-based medium containing antiretroviral drugs consisting of T-20 (100 μg/mL), tenofovir (1 μM), and emtricitabine (1 μM), and test stimuli at concentrations indicated in the figures.
The copy number of virion-associated HIV RNA in the cell culture supernatants was measured using the Cobas Ampliprep/Cobas Taqman HIV-1 Test, Version 2.0 (Roche Diagnostics) following 36–48 hours of incubation of cells with the above study compounds. The limit of detection was 20 copies/mL.

J-Lat 10.6 cell line = system: J-Lat 10.6 cell line; design: method as in PMID 22914190; conditions: cited from earlier work
U1 cells = assay: Activation of HIV from latency in U1 cell line (p24 ELISA); type: cell-based; conditions: 48h
Experimental: U1 cells (tested negative for bacteria, mold, yeast, and mycoplasma) were obtained through the AIDS Reagent Program, Division of AIDS, NIAID, NIH from Dr. Thomas Folks. Cells and compound were seeded in a final 200 μL volume of RF10 media at a cell density of 20,000 cells/well in v-bottomed 96 well plates and incubated at 37°C for 48 hours. After incubation, cells were pelleted and supernatant harvested then diluted in a 2% Triton-x-100/phosphate buffered saline solution. The concentration of HIV p24 protein in the culture supernatant was quantified using the HIV p24 antigen enzyme linked immunosorbent assay (ELISA) kit (Beckman Coulter) according to the manufacturer’s instructions.

[2] = system: human T cells in BLT mice; assay: Stimulation of human cells in uninfected humanized BLT mice (CD69, CD25); type: in vivo; conditions: spleen and blood, one day after stimulation
[3] = system: HA+ (HIV-expressing) cells; type: in vivo, humanized BLT mice; conditions: within 24 hours of activation, Ghost Red and Zombie Yellow
primary CD4+ T cells = assay: Induction of CD69 expression in primary CD4+ T cells; type: cell-based, human; conditions: 24h
Experimental: Primary human cells from HIV seronegative individuals were cultured in “RF10 medium” consisting of RPMI 1640 medium supplemented with 10% fetal bovine serum (FBS, Omega Scientific), 100 U/mL of penicillin, and 100 μg/mL of streptomycin (Invitrogen). PBMCs were isolated using Ficoll-Paque Plus separation (GE Healthcare). Primary CD4+ T cells were separated from PBMCs by negative immunomagnetic selection using the CD4+ T cell Isolation Kit (Miltenyi Biotec) according to the manufacturer’s instructions. Cells were then exposed to compound for 24 hours before staining and flow cytometric analysis of CD69 levels. Compound incubations were performed by seeding 10^5 cells/well in 100 μL of RF10 media containing the appropriate concentration of compound in wells of a v-bottomed 96-well plate. Bryostatin 1 (Tocris bioscience) and Prostratin (LC Laboratories) were obtained commercially, and bryologs or prostratin analogs were synthesized as previously described.
For human PBMC CD69 induction experiments, cells were stained with CD69-ECD (Beckman Coulter 6607110). During staining, cells were incubated at 4 °C for 20 minutes, washed with 2% FBS in PBS, and then resuspended in 2% paraformaldehyde. Stained samples were stored at 4 °C.
Flow cytometry samples were analyzed using a Cytomics FC 500 (Beckman Coulter) or a LSR Fortessa (BD Biosciences) flow cytometer. Data were analyzed using FlowJo (v7) software.

[4] = CD4+ T cells from 3 ART-treated patients, 48h

C=C1C[C@H]2C[C@]3(O)O[C@H](C[C@@H](O)CC(=O)O[C@@H](CO)C[C@@H]4C/C(=C\C(=O)OC)[C@H](OC(=O)CCCCCCC)[C@@](O)(O4)C(C)(C)/C=C/[C@@H](C1)O2)C[C@H](OC(C)=O)C3(C)C [SUW133]
amount of cell-free virion-associated HIV RNA relative to maximal T cell stimulation (costimulation) [1, 4]: approximately 1/3 | virus production compared with other LRAs [1, 4]: significantly outperformed panobinostat, vorinostat, JQ1, and bryostatin 1 treatment | induction of latent virus (cell-free virion-associated viral RNA) ([1]; resting CD4+ T cells from 6 aviremic patients, 50 nM, 36h): induced significant levels of latent virus | induction of HIV from latency (J-Lat 10.6 cell line): effectively induced HIV from latency | induction of latent virus (HIV p24 in supernatant) (U1 cells): induced significant levels of latent virus | CD25 expression in human T cells [2]: limited CD25 expression | CD69 expression in human T cells [2]: robust activation of CD69 | cells induced to express HIV that stained with cell death dyes [3]: up to 25% | CD69 expression (primary CD4+ T cells): upregulates expression
